{"source": "patent US9834525B2", "about": "“Inhibitors of paxillin function and related compositions and methods” (UNIVERSITY OF TENNESSEE RESEARCH FOUNDATION, priority 2015, dated 2017)", "key": {"UM tumor cell lines": {"test_system": "UM tumor cell lines", "assay": "Total cell numbers in UM cultures", "type": "cell-based, human"}, "paxillin (pY118)": {"test_system": "paxillin (pY118)", "assay": "Western blot of VEGF-induced paxillin Y118 phosphorylation in REC", "type": "cell-based, human", "method": "REC, Mel 270, OMM 2.5 under Hepatocyte Growth Factor (HGF) or Vascular Endothelial Growth Factor (VEGF) stimulation conditions: Cell lysates were collected in RIPA lysis buffer (50 mM Tris-HCl, pH 7.4, 150 mM NaCl, 2 mM EDTA, 1% Nonidet P-40, 0.1% SDS) with protease 1× inhibitor cocktail (Roche; Indianapolis, Ind.). Lysates were kept on ice and centrifuged at 10,000×g×10 minutes and total protein was measured using the BCA assay (Pierce, Rockford, Ill.). Protein samples were mixed with 4×LDS loading buffer with 2.5% 2-mercaptoethanol (Sigma-Aldrich), heated to 70° C. for 10 minutes, and loaded on NuPAGE 4-12% Bis-Tris gel (Invitrogen, Carlsbad, Calif.). Immunoblotting was performed with nitrocellulose membranes (Bio-Rad, Hercules, Calif.) at 170-mA start and 110-mA end at 25 V for two hours in NuPAGE transfer buffer (Invitrogen) containing 20% methanol. Membranes were blocked using Odyssey blocking buffer (LI-COR; Lincoln, Nebr.) for one hour at room temperature with gentle shaking Membranes were then incubated at 4° C. with specific primary antibodies (1:1000) overnight. Cellular protein was normalized using rabbit-GAPDH or mouse-α-Tubulin [1:20,000] (Cell Signaling, Danvers, Mass.; LI-COR, respectively). Secondary antibodies (IRDye 800CW goat anti-rabbit and IRDye 680LT goat anti-mouse) [1:10,000] were incubated in the dark at room temperature for 45 minutes. Dual-channel infrared scan and quantitation of immunoblots were conducted using the ODYSSEY Sa infrared imaging system with Image Studio (Ver. 3.1.4) (LI-COR).\nThe α4 subunit of the cytoplasmic tail of VLA-4 interacts with the cytoskeletal adaptor paxillin, merging intracellular signaling events that drive cellular proliferation and migration (FIG. 13). Compound (II-4) inhibits phosphorylation of paxillin at Y118 (pY118) in the LD-region that interacts with the α4 subunit of VLA-4. To confirm the inhibition of pY118 of paxillin after use of compound (II-4) retinal endothelial cells (REC) were activated with Vascular Endothelial Growth Factor (VEGF) at 50 ng/mL in the presence or absence (vehicle) of compound (II-4) at a concentration of […] for 4-hrs. […] VEGF-induced pY118 was prevented by treatment with compound (II-4) [VEGF-REC treatment versus untreated, *p<0.005; VEGF-induced versus compound (II-4) treatment, **p<0.05—FIG. 13C].\nTo gain insight into the mechanistic basis for this phenotype, the effect of compound (II-4) on the Src/FAK/paxillin/ERK signalsome in RECs under VEGF was examined. […] Next, characterization of the potential of compound (II-4) to affect FA disassembly through inactivation of ERK was explored. […]\nFIG. 13: Targeting the alpha-4 subunit of VLA-4 signaling through inhibition of paxillin. […] Phosphorylation measured by Western Blot. […]"}, "[1]": {"biological_target": "T1, melatonin-1 receptor (MT-1) (Homo sapiens, UniProt P48039)", "T1 construct": "purchased Eurofins, Cerep Panlabs ExpresS Profile", "T1 sequence (P48039 whole entry)": "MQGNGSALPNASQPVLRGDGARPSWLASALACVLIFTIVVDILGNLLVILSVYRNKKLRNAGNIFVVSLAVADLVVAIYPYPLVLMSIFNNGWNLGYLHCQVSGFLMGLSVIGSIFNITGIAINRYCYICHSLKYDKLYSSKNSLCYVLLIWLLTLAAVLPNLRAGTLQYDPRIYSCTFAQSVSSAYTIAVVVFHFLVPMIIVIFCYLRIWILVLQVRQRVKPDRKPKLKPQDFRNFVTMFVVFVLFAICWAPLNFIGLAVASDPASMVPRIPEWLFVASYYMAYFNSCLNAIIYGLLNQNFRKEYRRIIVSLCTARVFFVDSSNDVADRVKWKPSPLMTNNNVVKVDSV", "assay": "Off-target counter screening, ExpresS Profile", "type": "binding", "details": "10 μM", "method": "(§1) Counter-screen assays to determine “off-target” effects are conducted at an early stage to mitigate toxicological risk of new chemical entities. Compound (II-4) (10 μM) counter screening was conducted against a wide variety of target receptors, enzymes, and ion channels using a serum-free cell-based assay, ExpresS Profile (Eurofins, Cerep Panlabs). Inhibition >50% is considered a “positive” interaction."}, "[2]": {"biological_target": "T2, serotonin receptor 5-HT2B (Homo sapiens, UniProt P41595)", "T2 construct": "purchased Eurofins, Cerep Panlabs ExpresS Profile", "T2 sequence (P41595 whole entry)": "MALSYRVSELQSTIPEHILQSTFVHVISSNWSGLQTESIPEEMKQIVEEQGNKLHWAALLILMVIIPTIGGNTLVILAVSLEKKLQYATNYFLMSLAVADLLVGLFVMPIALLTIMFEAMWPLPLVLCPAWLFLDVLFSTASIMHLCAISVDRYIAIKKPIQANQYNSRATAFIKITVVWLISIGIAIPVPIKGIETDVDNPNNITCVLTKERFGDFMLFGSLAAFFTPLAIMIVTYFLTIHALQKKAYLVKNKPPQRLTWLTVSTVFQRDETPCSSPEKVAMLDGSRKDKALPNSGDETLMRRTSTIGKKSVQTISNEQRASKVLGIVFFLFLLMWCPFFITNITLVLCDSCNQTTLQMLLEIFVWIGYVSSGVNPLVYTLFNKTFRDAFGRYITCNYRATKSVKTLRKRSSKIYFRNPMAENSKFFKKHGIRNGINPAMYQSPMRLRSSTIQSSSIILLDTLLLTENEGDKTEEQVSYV", "assay": "Off-target counter screening, ExpresS Profile", "type": "binding", "details": "10 μM", "method": "as §1"}, "[3]": {"test_system": "retinal endothelial cells (REC)", "assay": "Annexin V/PI apoptosis analysis by flow cytometry in REC", "type": "cell-based, human", "method": "Harvested cells were washed twice with cold PBS/2% FBS. Pelleted cells were resuspended in Annexin V Binding Buffer (BioLegend, San Diego, Calif.) at a concentration of 5.0×10^6 cells/mL following manufacturer's instructions. 5.0×10^5 cells (100 μL) were labeled with 5 μL of FITC Annexin V and 10 μL of Propidium Iodide (PI) solution. Cells were vortexed gently and incubated for 15 minutes at RT in dark. 300 μL of Annexin V Binding Buffer were added to each sample tube and analyzed in BD LSRII Flow Cytometry Analyzer (BD Biosciences, San Jose, Calif.). Apoptotic cells were defined as Annexin V^+PI^neg while necrotic cells are defined as Annexin V^+PI^+. […]\nTo investigate the potential of compound (II-4) affecting the proliferative capacity of RECs treated with VEGF, proliferation was measured using the metabolic assay based on the tetrazolium salt, WST-1. […] Cells were harvested and apoptosis measured with Annexin-V/Propidium Iodide (PI) staining and analyzed using flow cytometry.\nFIG. 18: REC Proliferation and Flow cytometry analysis of apoptosis in REC. A) VEGF-induced cellular proliferation was assessed using the WST-1 metabolic assay. […] B) Apoptosis was measured using Annexin V/PI staining Compound (II-4) (1 μM) appears to be non-cytotoxic to retinal endothelial cells after 24 hour incubation (n≈10,000 cells)."}}, "note": "“Also recorded” adds a separate entry of the source.", "data": [{"smiles": "COc1cc(C2OC(=O)Nc3c2ccc2ccccc32)cc(OC)c1OC", "note": "(stereo not shown) [compound II-4]", "values": [{"measurement": "total cell numbers compared to untreated cultures", "setting": "UM tumor cell lines", "result": "reduction in total cell numbers"}, {"measurement": "VEGF-induced PaxY118 phosphorylation (FIG. 20)", "setting": "paxillin (pY118); REC under VEGF, compound (II-4) 500 nM, SU6656 1 μM", "result": "able to inhibit; also recorded: reduced"}, {"measurement": "VEGF-induced paxillin phosphorylation (pY118)", "setting": "paxillin (pY118); REC, VEGF 50 ng/mL, 4 hrs, inhibitor 1 μM (printed 104)", "result": "prevented; also recorded: reduced"}, {"measurement": "off-target interaction, MT-1 (inhibition >50% considered positive)", "setting": "[1]", "result": "possible binding targets"}, {"measurement": "off-target interaction, 5-HT2B (inhibition >50% considered positive)", "setting": "[2]", "result": "possible binding targets"}, {"measurement": "spontaneous apoptosis in REC (PI and Annexin V)", "setting": "[3]; 1 μM for 4-hrs", "result": "did not cause an increase in spontaneous apoptosis"}, {"measurement": "apoptosis / cytotoxicity in REC (Annexin-V/PI)", "setting": "[3]; 1 μM for 24 hours", "result": "No evidence of apoptosis was detected; also recorded: non-cytotoxic"}]}]}
